Measurements as given in patent publication US4279915A, “Method of treatment using new leurosine derivatives” (priority 1973, dated 1981).

Columns and labels:
Harding Passey melanoma = conditions: cited from earlier work
[1] = acute toxicity in Swiss mice; format: in vivo, mouse; conditions: mouse, in vivo, Swiss mice
Source text: ACUTE TOXICITY IN SWISS MICE
Table III lists the comparative toxicological data concerning Vincristine, Vinblastine and F-leurosine. The new analogue is approximately 7 times less toxic than Vincristine and 4 times less toxic than Vinblastine in acute rodent experiments.

VX-2 rabbit epitheloma = conditions: cited from earlier work
rhabdomyo-sarcoma = conditions: cited from earlier work
cancer = conditions: animal tests and human therapy; cited from earlier work

Row | SMILES | treatability with hitherto known cytostatics (Harding Passey melanoma) | LD50 ([1]; ip, 1 x i.p.) | LD50 ([1]; iv, 1 x i.v.) | treatability with hitherto known cytostatics (VX-2 rabbit epitheloma) | treatability with hitherto known cytostatics (rhabdomyo-sarcoma) | activity relative to vinblastine (cancer)
1 | CC[C@]1(O)C[C@@H]2CN(CCc3c([nH]c4ccccc34)[C@@](C(=O)OC)(c3cc4c(cc3OC)N(C)[C@H]3[C@@](O)(C(=O)OC)[C@H](OC(C)=O)[C@]5(CC)C=CCN6CC[C@]43[C@@H]65)C2)C1 [Vinblastine, vincaleucoblastine] | could hardly be treated, if at all | 7.6 mg/kg | 15 mg/kg | could hardly be treated, if at all | could hardly be treated, if at all | 
2 | CC[C@]1(O)C[C@H]2CN(CCc3c([nH]c4ccccc34)[C@@](C(=O)OC)(c3cc4c(cc3OC)N(C=O)[C@H]3[C@@](O)(C(=O)OC)[C@H](OC(C)=O)[C@]5(CC)C=CCN6CC[C@]43[C@@H]65)C2)C1 [Vincristine, leurocristine] | could hardly be treated, if at all | 4 mg/kg | 3 mg/kg | could hardly be treated, if at all | could hardly be treated, if at all | more active both in animal tests, and, primarily, in human therapy
